The numbers were not newly measured in patent US12319654B2, “Inert nanocapsules” (THE UNIVERSITY COURT OF THE UNIVERSITY OF EDINBURGH, priority 2018, dated 2025), which cites them from elsewhere.

For this data set the following is noted: free anion.

Consider `[O]=[99Tc](=[O])(=[O])[O-]` [^99mTcO4^−], for which the Clearance time entry was “ca. 30 mins”.
